Test results as given in ChEMBL document CHEMBL1156553, “Prenylated dihydrochalcones from Boronia bipinnata that inhibit the malarial parasite enzyme target hemoglobinase II” (J Nat Prod, 2008).

Test: Inhibition of recombinant hemoglobinase 2

IC50 [µM]	Structure (SMILES)
0.003	CC(C)CC(=O)N[C@H](C(=O)N[C@H](C(=O)N[C@@H](CC(C)C)[C@@H](O)CC(=O)N[C@@H](C)C(=O)N[C@@H](CC(C)C)[C@@H](O)CC(=O)O)C(C)C)C(C)C [PEPSTATIN]
64	CC(C)=CCC/C(C)=C/CC/C(C)=C/Cc1cc(CCC(=O)c2c(O)cc(O)cc2O)ccc1O [BIPINNATONE A]
51	CC(C)=CCC/C(C)=C/Cc1cc(CCC(=O)c2c(O)cc(O)cc2O)ccc1O [BIPINNATONE B]
